# From patent US5770604A, “Aconitine compound and an antipyretic/analgesic/anti-inflammatory agent” (priority 1994, dated 1998)
# Test system: pain threshold (tail-pressure)
# Test: Tail-pressure method, experiment combined with morphine antagonist (levallorphan)
# Assay type: in vivo, mice (Std:ddY, male)
# Details: levallorphan 1 mg/kg s.c. alone, mean ± standard error
# Description: (4) Experiment Combined with Morphine Antagonist
# Std:ddY Strain male mice (20-25 g) were fasted for one day before the experiment, and were used. In this experiment, the tartaric acid salt of a compound of number (2) in Table 1, morphine hydrochloride and levallorphan hydrochloride of an opioid antagonist were used. The tartaric acid salt of a compound of number (2) was dissolved in 0.9% physiological saline solution at the rate of 10 mg/2 ml. Morphine hydrochloride was dissolved in 0.9% physiological saline solution at the rate of 10 mg/2 ml. Levallorphan hydrochloride was dissolved in 0.9% physiological saline solution at the rate of 1 mg/10 ml. As a control, 0.9% physiological saline solution was used. A tail-pressure apparatus was used in this experiments. Before the administration of levallorphan hydrochloride, the pain threshold was measured twice at intervals of 30 minutes and those mice indicating a pain threshold of 50 to 100 mmHg were selected and used. Levallorphan hydrochloride solution mentioned above was administered s.c. at the rate of 10 ml/kg and, 30 minutes later, the above tartaric acid salt solution compound of number (2) or morphine hydrochloride solution was injected i.v. at the rate of 2 ml/kg, respectively. Each pain threshold was measured 10, 20 and 30 minutes after an intravenous injection. In control group, 0.9% physiological saline solution was injected i.v. at the rate of 2 ml/kg at 30 minutes after s.c. administration at 10 ml/kg of 0.9% physiological saline solution. In the single administration group of levallorphan hydrochloride, levallorphan hydrochloride solution mentioned above was administered s.c. at the rate of 10 ml/kg and, 30 minutes later, 0.9% physiological saline solution was injected i.v. at the rate of 2 ml/kg. The results were described in Table 10 as an inhibition rate (%) indicating in the preceding paragraph (1).
compound,measurement,setting,value
C=CCN1CC[C@]23CCCC[C@H]2[C@H]1Cc1ccc(O)cc13 [levallorphan],Inhibition rate,10 min after i.v. injection,3 ± 4%
same,Inhibition rate,20 min after i.v. injection,-3 ± 4%
same,Inhibition rate,30 min after i.v. injection,1 ± 3%
